Results taken from US20230374038A1, “MODULATORS OF CYSTIC FIBROSIS TRANSMEMBRANE CONDUCTANCE REGULATOR” (VERTEX PHARMACEUTICALS INCORPORATED, priority 2020, published 2023).
Where two headings read alike, the source gives them in different places.

How the values were obtained:
[1] = amide bond
[2] = molecular target: CFTR (Homo sapiens, UniProt P13569); experiment: Membrane Potential Dye, Enteroid Assay B; type: cell-based; details: for EC50: read-out: Ent. B EC50
In short: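 Human intestinal enteroids seeded at 5000 cells/well, treated with compound 18-24 h at 37 °C, then loaded 25 min with methyl oxonol membrane-potential dye plus CaCC blockers. Chloride transport started in chloride-free buffer with 10 μM forskolin, 100 μM IBMX and 300 nM Compound III, read 15 min; expressed as % of triple-combination control.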

Chain of CFTR (P13569 with tags, fused parts or gaps DEL508-508): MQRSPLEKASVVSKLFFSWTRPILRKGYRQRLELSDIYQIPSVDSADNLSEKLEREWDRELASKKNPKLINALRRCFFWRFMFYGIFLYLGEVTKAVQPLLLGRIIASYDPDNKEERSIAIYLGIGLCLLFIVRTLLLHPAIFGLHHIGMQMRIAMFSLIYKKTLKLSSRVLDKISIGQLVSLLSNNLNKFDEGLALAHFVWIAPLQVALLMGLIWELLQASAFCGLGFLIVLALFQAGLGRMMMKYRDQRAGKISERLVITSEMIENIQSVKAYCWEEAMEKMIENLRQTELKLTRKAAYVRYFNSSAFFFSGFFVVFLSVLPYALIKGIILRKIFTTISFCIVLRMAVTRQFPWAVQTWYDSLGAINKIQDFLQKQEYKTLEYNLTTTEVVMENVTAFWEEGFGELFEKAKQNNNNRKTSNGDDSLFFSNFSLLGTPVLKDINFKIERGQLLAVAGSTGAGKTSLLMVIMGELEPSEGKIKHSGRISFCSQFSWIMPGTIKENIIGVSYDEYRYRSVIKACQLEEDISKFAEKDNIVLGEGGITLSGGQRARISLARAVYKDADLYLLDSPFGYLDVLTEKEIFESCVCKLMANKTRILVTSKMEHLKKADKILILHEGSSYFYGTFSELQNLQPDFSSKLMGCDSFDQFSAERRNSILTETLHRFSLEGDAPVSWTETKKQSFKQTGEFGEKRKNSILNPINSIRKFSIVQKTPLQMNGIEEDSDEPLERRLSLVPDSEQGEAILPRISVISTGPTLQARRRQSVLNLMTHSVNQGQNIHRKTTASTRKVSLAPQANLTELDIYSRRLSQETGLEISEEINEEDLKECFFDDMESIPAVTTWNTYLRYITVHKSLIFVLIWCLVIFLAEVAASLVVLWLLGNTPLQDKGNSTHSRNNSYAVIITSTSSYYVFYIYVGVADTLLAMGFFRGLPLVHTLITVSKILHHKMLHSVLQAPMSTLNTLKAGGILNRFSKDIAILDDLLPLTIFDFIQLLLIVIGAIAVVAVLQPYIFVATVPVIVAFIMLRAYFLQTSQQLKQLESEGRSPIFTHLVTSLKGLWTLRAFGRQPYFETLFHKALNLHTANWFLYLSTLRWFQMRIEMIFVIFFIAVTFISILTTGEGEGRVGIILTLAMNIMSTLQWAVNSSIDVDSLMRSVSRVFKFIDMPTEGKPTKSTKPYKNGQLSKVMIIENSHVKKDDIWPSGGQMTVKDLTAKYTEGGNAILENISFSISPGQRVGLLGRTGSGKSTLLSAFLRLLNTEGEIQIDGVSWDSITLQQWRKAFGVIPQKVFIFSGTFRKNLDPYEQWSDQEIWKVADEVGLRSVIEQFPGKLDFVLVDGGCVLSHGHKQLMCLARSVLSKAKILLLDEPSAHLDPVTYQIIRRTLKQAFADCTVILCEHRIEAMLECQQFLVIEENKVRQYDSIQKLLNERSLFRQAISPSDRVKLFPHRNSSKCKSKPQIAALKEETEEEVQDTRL

Ent. B Max Activity [2]	EC50 [2]	Molecule	other results
++ (++ is 30-60%)	< 1000 nM	Cc1cccc(C)c1-c1nc2nc(c1C)OC[C@@H](C)N(C1CC3(CC(NC(=O)OC(C)(C)C)C3)C1)C(=O)c1cccc(c1)S(=O)(=O)N2 (stereo partly drawn) [Compound 116, tert-Butyl N-{6-[(11R)-6-(2,6-dimethylphenyl)-7,11-dimethyl-2,2,13-trioxo-9-oxa-2λ^6-thia-3,5,12,19-tetraazatricyclo[12.3.1.14,8]nonadeca-1(18),4,6,8(19),14,16-hexaen-12-yl]spiro[3.3]heptan-2-yl}carbamate]	ring closure, yield after HPLC ([1]; from Cc1cccc(C)c1-c1nc(NS(=O)(=O)c2cccc(C(=O)O)c2)nc(OC[C@@H](C)NC2CC3(CC(NC(=O)OC(C)(C)C)C3)C2)c1C, 13-membered ring, HATU/TEA, DMF, 26.7 mM, 1.0 h): 57%
+++ (+++ is >60%)	< 1000 nM	Cc1cccc(C)c1-c1nc2nc(c1C(F)(F)F)OC[C@@H](CC(C)C)N(C1CC3(CC3)C1)C(=O)c1cccc(c1)S(=O)(=O)N2 [Compound 162, (11R)-6-(2,6-dimethylphenyl)-11-isobutyl-2,2-dioxo-12-spiro[2.3]hexan-5-yl-7-(trifluoromethyl)-9-oxa-2λ^6-thia-3,5,12,19-tetrazatricyclo[12.3.1.14,8]nonadeca-1(18),4(19),5,7,14,16-hexaen-13-one]	ring closure, yield after HPLC ([1]; from Cc1cccc(C)c1-c1nc(NS(=O)(=O)c2cccc(C(=O)O)c2)nc(OC[C@@H](CC(C)C)NC2CC3(CC3)C2)c1C(F)(F)F, 13-membered ring, HATU/TEA, DMF, 11.7 mM, 16.0 h): 69%
+++ (+++ is >60%)	< 1000 nM	CCc1c2nc(nc1-c1c(C)cccc1C)NS(=O)(=O)c1cccc(c1)C(=O)N[C@H](CC(C)(C)C)CO2 [Compound 161, (11R)-6-(2,6-Dimethylphenyl)-11-(2,2-dimethylpropyl)-7-ethyl-9-oxa-2λ^6-thia-3,5,12,19-tetraazatricyclo[12.3.1.14,8]nonadeca-1(18),4(19),5,7,14,16-hexaene-2,2,13-trione]	ring closure, yield after HPLC ([1]; from CCc1c(OC[C@H](N)CC(C)(C)C)nc(NS(=O)(=O)c2cccc(C(=O)O)c2)nc1-c1c(C)cccc1C, 13-membered ring, COMU/DIEA, DMF, 20.3 mM, 15.0 h): 41%
+++ (+++ is >60%)	< 1000 nM	Cc1cccc(C)c1-c1nc2nc(c1C)OC[C@@H](CC(C)C)N(C1CC3(CC3)C1)C(=O)c1cccc(n1)S(=O)(=O)N2 [Compound 118, (11R)-6-(2,6-Dimethylphenyl)-7-methyl-11-(2-methylpropyl)-12-{spiro[2.3]hexan-5-yl}-9-oxa-2λ^6-thia-3,5,12,18,19-pentaazatricyclo[12.3.1.14,8]nonadeca-1(17),4(19),5,7,14(18),15-hexaene-2,2,13-trione]	ring closure, yield after HPLC ([1]; from Cc1cccc(C)c1-c1nc(NS(=O)(=O)c2cccc(C(=O)O)n2)nc(OC[C@@H](CC(C)C)NC2CC3(CC3)C2)c1C, 13-membered ring, HATU/DIEA, DMF, 12.2 mM, 17.0 h): 42%
++ (++ is 30-60%)	1000 to 3000 nM	Cc1cccc(C)c1-c1nc2nc(c1C)OC[C@@H](C)NC(=O)c1cccc(c1)S(=O)(=O)N2 [Compound 117, (11R)-6-(2,6-Dimethylphenyl)-7,11-dimethyl-9-oxa-2λ^6-thia-3,5,12,19-tetraazatricyclo[12.3.1.14,8]nonadeca-1(18),4,6,8(19),14,16-hexaene-2,2,13-trione]	ring closure, yield after HPLC ([1]; from Cc1cccc(C)c1-c1nc(NS(=O)(=O)c2cccc(C(=O)O)c2)nc(OC[C@@H](C)N)c1C, 13-membered ring, HATU/DIEA, DMF, 49.3 mM, 1.0 h): 18%
+++ (+++ is >60%)	< 1000 nM	Cc1cccc(C)c1-c1nc2nc(c1C)OC[C@@H](CC(C)(C)C(F)(F)F)N(C1CC3(CCN(C(=O)OC(C)(C)C)CC3)C1)C(=O)c1cccc(c1)S(=O)(=O)N2 [Compound 156, tert-Butyl 2-[(11R)-6-(2,6-dimethylphenyl)-7-methyl-2,2,13-trioxo-11-(3,3,3-trifluoro-2,2-dimethylpropyl)-9-oxa-2λ^6-thia-3,5,12,19-tetraazatricyclo[12.3.1.14,8]nonadeca-1(17),4(19),5,7,14(18),15-hexaen-12-yl]-7-azaspiro[3.5]nonane-7-carboxylate]	ring closure, yield after HPLC ([1]; from Cc1cccc(C)c1-c1nc(NS(=O)(=O)c2cccc(C(=O)O)c2)nc(OC[C@@H](CC(C)(C)C(F)(F)F)NC2CC3(CCN(C(=O)OC(C)(C)C)CC3)C2)c1C, 13-membered ring, HATU/DIEA, DMF, 23.2 mM, 29.0 h): 22%
+ (+ is <30%)	3000 to 30000 nM	Cc1cccc(C)c1-c1nc2nc(c1C)OCCCNC(=O)c1cccc(c1)S(=O)(=O)N2 [Compound 36, 6-(2,6-Dimethylphenyl)-7-methyl-9-oxa-2λ^6-thia-3,5,13,20-tetraazatricyclo[13.3.1.14,8]icosa-1(19),4,6,8(20),15,17-hexaene-2,2,14-trione]	ring closure, yield after HPLC ([1]; from Cc1cccc(C)c1-c1nc(NS(=O)(=O)c2cccc(C(=O)O)c2)nc(OCCCN)c1C, 14-membered ring, HATU/DIEA, DMF, 49.0 mM, 25.0 °C, 1.0 h): 46%
–	–	Cc1cccc(CC(C)C)c1-c1nc2nc(c1C(F)(F)F)OC[C@@H](CC(C)(C)C)N(Cc1ncc(N3CCOCC3)cn1)C(=O)c1cccc(c1)S(=O)(=O)N2	ring closure, yield after HPLC ([1]; from Cc1cccc(CC(C)C)c1-c1nc(NS(=O)(=O)c2cccc(C(=O)O)c2)nc(OC[C@@H](CC(C)(C)C)NCc2ncc(N3CCOCC3)cn2)c1C(F)(F)F, 13-membered ring, CDMT/NMM, DMF, 92.0 mM, 4.0 h): 37%
+++ (+++ is >60%)	< 1000 nM	CCc1c2nc(nc1-c1c(C)cccc1C)NS(=O)(=O)c1cccc(c1)C(=O)N(C1CC3(CC3)C1)[C@H](CC(C)C)CO2 [Compound 160, (11R)-6-(2,6-Dimethylphenyl)-7-ethyl-11-isobutyl-2,2-dioxo-12-spiro[2.3]hexan-5-yl-9-oxa-2λ^6-thia-3,5,12,19-tetrazatricyclo[12.3.1.14,8]nonadeca-1(17),4(19),5,7,14(18),15-hexaen-13-one]	ring closure, yield after HPLC ([1]; from CCc1c(OC[C@@H](CC(C)C)NC2CC3(CC3)C2)nc(NS(=O)(=O)c2cccc(C(=O)O)c2)nc1-c1c(C)cccc1C, 13-membered ring, HATU/TEA, DMF, 31.1 mM, 3.0 h): 60%
+++ (+++ is >60%)	< 1000 nM	Cc1cccc(C)c1-c1nc2nc(c1C)OC[C@@H](CC1(C(F)(F)F)CC1)N(C1CC3(CC3)C1)C(=O)c1cccc(c1)S(=O)(=O)N2 [Compound 50, (11R)-6-(2,6-Dimethylphenyl)-7-methyl-2,2-dioxo-12-spiro[2.3]hexan-5-yl-11-[[1-(trifluoromethyl)cyclopropyl]methyl]-9-oxa-2λ^6-thia-3,5,12,19-tetrazatricyclo[12.3.1.14,8]nonadeca-1(18),4(19),5,7,14,16-hexaen-13-one]	ring closure, yield after HPLC ([1]; from Cc1cccc(C)c1-c1nc(NS(=O)(=O)c2cccc(C(=O)O)c2)nc(OC[C@@H](CC2(C(F)(F)F)CC2)NC2CC3(CC3)C2)c1C, 13-membered ring, HATU/DIEA, DMF, 14.4 mM, 25.0 °C, 23.0 h): 44%
–	–	(5M,11R)-11-(2,2-dimethylpropyl)-12-({5-[(2,2-dimethylpropyl)(methyl)amino]pyrimidin-2-yl}methyl)-7-methyl-6-[2-methyl-6-(2-methylpropyl)phenyl]-9-oxa-2λ^6-thia-3,5,12,19-tetraazatricyclo[12.3.1.14,8]nonadeca-1(17),4(19),5,7,14(18),15-hexaene-2,2,13-trione	ring closure, yield after HPLC ([1]; 13-membered ring, CDMT/NMM, DMF, 2 steps): 20%
–	–	Cc1cccc(COC(C)C)c1-c1nc2nc(c1C)OC[C@@H](CC(C)(C)C)N(Cc1ncc(N3CCC(C)(C)C3)cn1)C(=O)c1cccc(c1)S(=O)(=O)N2	ring closure, yield after HPLC ([1]; from Cc1cccc(COC(C)C)c1-c1nc(NS(=O)(=O)c2cccc(C(=O)O)c2)nc(OC[C@@H](CC(C)(C)C)NCc2ncc(N3CCC(C)(C)C3)cn2)c1C, 13-membered ring, CDMT/NMM, DMF, 11.0 mM, 5.0 h, 2 steps): 13%
–	–	Cc1cccc(C)c1-c1nc2nc(c1C)OC[C@@H](CC(C)C)N(C1CC(OC(C)C)C1)C(=O)c1cccc(c1)S(=O)(=O)N2 (single isomer, unassigned; diastereomer 1)	ring closure, yield after HPLC ([1]; from Cc1cccc(C)c1-c1nc(NS(=O)(=O)c2cccc(C(=O)O)c2)nc(OC[C@@H](CC(C)C)NC2CC(OC(C)C)C2)c1C, 13-membered ring, HATU/DIEA, DMF, 25.0 °C, 2 steps): 9%
–	–	Cc1ccc2cc1Oc1cc(-c3c(C)cccc3C)nc(n1)NS(=O)(=O)c1cccc(c1)NC2=O	ring closure, yield after HPLC ([1]; from Cc1ccc(C(=O)O)cc1Oc1cc(-c2c(C)cccc2C)nc(NS(=O)(=O)c2cccc(N)c2)n1, 14-membered ring, HATU/DIEA, DMF, 78.0 mM, 25.0 °C, 0.083 h, 3 steps): 26%
–	–	(5P,11R)-11-(2,2-dimethylpropyl)-12-({5-[(2,2-dimethylpropyl)(methyl)amino]pyrimidin-2-yl}methyl)-7-methyl-6-[2-methyl-6-(2-methylpropyl)phenyl]-9-oxa-2λ^6-thia-3,5,12,19-tetraazatricyclo[12.3.1.14,8]nonadeca-1(17),4(19),5,7,14(18),15-hexaene-2,2,13-trione	ring closure, yield after HPLC ([1]; 13-membered ring, CDMT/NMM, DMF, 19.0 mM, 2 steps): 11%

Molecule	Ent. B Max Activity [2]	EC50 [2]	other results
Cc1cccc(C)c1-c1nc2nc(c1C)O[C@H](c1ccc(C(C)(C)C)cc1)[C@@H](C)NC(=O)c1cccc(c1)S(=O)(=O)N2 [Compound 172, (10R,11R)-10-(4-tert-Butylphenyl)-6-(2,6-dimethylphenyl)-7,11-dimethyl-2,2-dioxo-9-oxa-2λ^6-thia-3,5,12,19-tetrazatricyclo[12.3.1.14,8]nonadeca-1(18),4(19),5,7,14,16-hexaen-13-one]	+++ (+++ is >60%)	< 1000 nM	ring closure, yield after HPLC ([1]; 13-membered ring, NaOtBu then HATU, THF/DMF, 77.0 mM, 2 steps): 8%
